Assay results taken from patent publication US12697326B2, “Methods of treating hepatic encephalopathy” (SALIX PHARMACEUTICALS, INC., priority 2008, dated 2026).

Key:
[1] = test system: hospitalization in subjects with HE; experiment: Hospitalizations, second study; format: in vivo, human
Source text: (§1) Normalizing for subject exposure, this represents a hospitalization rate of 0.60 event/PEY. A total of 59 were hospitalized due HE episodes (e.g., HE-caused). Normalizing for subject exposure, this represents an HE-caused hospitalization rate of 0.29 event/PEY. […] All subjects were capable of worsening over time, and 24/266 subjects (9.0%) did so by 1 or 2 grades.

[2] = test system: asterixis grade in subjects with HE; experiment: Level of change from baseline in asterixis grade by treatment group, first study; format: in vivo, human; conditions: 550 mg BID, Baseline to EOT
Protocol: Asterixis (flapping tremor) was determined with the subject holding both arms and forearms extended with wrists dorsiflexed and fingers open for ≥30 seconds. Asterixis was measured on a continuum of 5 grades, e.g., grades 0 and 4=no abnormal movement vs. almost continuous flapping motions, respectively as shown below: • Grade 0=No tremors; • Grade 1=Rare flapping motions; • Grade 2=Occasional, irregular flaps; • Grade 3=Frequent flaps; and • Grade 4=Almost continuous flapping motions.

[3] = test system: all-cause hospitalization in subjects with HE; experiment: All-cause hospitalization, first study; format: in vivo, human
patients with HE = conditions: 6-month study; rifaximin 1200 mg/day, neomycin 3 g/day; 14 days on, 14 days off per month; cited from earlier work
[4] = test system: critical flicker frequency in subjects with HE; experiment: Critical flicker frequency (CFF) test, change from baseline, first study; format: in vivo, human
Protocol: The critical flicker frequency (CFF) was assessed for each subject using a specialized CFF instrument. The CFF is the frequency at which the subject observes a constant light transition to a flickering light and is measured in Hertz (Hz). CFF is an objective assessment of mental status.
The CFF was measured on a continuous scale and was the mean of 8 separate fusion-to-flicker transition tests performed in rapid succession.
Mean values and mean changes from baseline in blood ammonia concentration and critical flicker frequency values were collected. Analyses of blood ammonia concentrations and critical flicker frequency values were based upon quantitative values (not qualitative grades). Treatment differences for mean change from baseline in these parameters was estimated using a mixed effects model with fixed effects for time and baseline value.
A critical flicker frequency (CFF) assessment, a recognized quantitative measure of CNS dysfunction, was an efficacy endpoint in the first study. CFF tests utilize the correlation between cerebral processing of oscillatory visual stimuli and CNS impairment due to increased HE severity.^10,11,12,13 This test identifies a frequency at which a flickering light is perceived as steady. A decline in this frequency has been associated with increasing severity of HE. Likewise, elevation in blood ammonia, another endpoint in the first study, is a quantitative assessment associated with the CNS effects underlying overt HE.

[5] = test system: Conn score in subjects with HE; experiment: Level of change from baseline in Conn score by treatment group, first study; format: in vivo, human; conditions: 550 mg BID, Baseline to EOT
Source text: The scale used in the Conn scoring system is provided below. • Grade 0=No personality or behavioral abnormality detected • Grade 1=Trivial lack of awareness, euphoria or anxiety; shortened attention span; impairment of addition or subtraction • Grade 2=Lethargy; disorientation for time; obvious personality change; inappropriate behavior • Grade 3=Somnolence to semi-stupor, responsive to stimuli; confused; gross disorientation; bizarre behavior • Grade 4=Coma; unable to test mental state
Change in mental status was measured by the Conn score (also known as the West Haven score). The Conn score has been widely used as a measure of mental state in HE studies and is based on the criteria of Parsons-Smith as modified by Conn. The scale used in the Conn scoring system is described above.

[6] = test system: Conn score and asterixis grade in subjects with HE; experiment: Changes from baseline in Conn scores and asterixis grades, second study; format: in vivo, human
Source text: as §1
The last visit for the second study is the last visit recorded for the interim analysis.

[7] = test system: Staphylococcus, Streptococcus, Enterococcus, and Enterobacteriaceae; conditions: cited from earlier work
[8] = human, in vivo
[9] = 550 mg BID, Baseline to Day 140

CO[C@H]1/C=C/O[C@@]2(C)Oc3c(C)c(O)c4c(O)c(c5c(nc6cc(C)ccn65)c4c3C2=O)NC(=O)/C(C)=C\C=C\[C@H](C)[C@H](O)[C@@H](C)[C@@H](O)[C@@H](C)[C@H](OC(C)=O)[C@@H]1C [Rifaximin]
all cause hospitalization rate [1]: 0.60 event/PEY
subjects hospitalized due HE episodes (HE-caused) [1]: 59
subjects hospitalized for any cause (of 266) ([1]; all rifaximin): 133
subjects hospitalized for any cause ([1]; continuing rifaximin group): 35
subjects hospitalized for any cause ([1]; new rifaximin group): 98
Change from baseline in asterixis grade, Max [2]: 2
Change from baseline in asterixis grade, Mean [2]: 0.0
Change from baseline in asterixis grade, Median [2]: 0.0
Change from baseline in asterixis grade, Min [2]: −2
Number of subjects with change from baseline in asterixis grade of 0 ([2]; n = 139): 108
Number of subjects with change from baseline in asterixis grade of 1 ([2]; n = 139): 10
Number of subjects with change from baseline in asterixis grade of 2 ([2]; n = 139): 2
Number of subjects with change from baseline in asterixis grade of 3 ([2]; n = 139): 0
Number of subjects with change from baseline in asterixis grade of 4 ([2]; n = 139): 0
Number of subjects with change from baseline in asterixis grade of −1 ([2]; n = 139): 18
Number of subjects with change from baseline in asterixis grade of −2 ([2]; n = 139): 1
Percent of subjects with change from baseline in asterixis grade of 0 ([2]; n = 139): 77.7%
Percent of subjects with change from baseline in asterixis grade of 1 ([2]; n = 139): 7.2%
Percent of subjects with change from baseline in asterixis grade of 2 ([2]; n = 139): 1.4%
Percent of subjects with change from baseline in asterixis grade of −1 ([2]; n = 139): 12.9%
Percent of subjects with change from baseline in asterixis grade of −2 ([2]; n = 139): 0.7%
reduction in risk of all-cause hospitalization compared with placebo [3]: 30%
subjects with all-cause hospitalization (of 140) ([3]; rifaximin group): 46
all-cause hospitalization rate ([3]; rifaximin group, normalized for exposure): 0.90 events/PEY
efficacy in patients with HE, rifaximin versus neomycin (patients with HE): comparable efficacy
Change from Baseline in Critical Flicker Frequency Test, Max [4, 9]: 12 Hz
Change from Baseline in Critical Flicker Frequency Test, Mean [4, 9]: 1.4 Hz
Change from Baseline in Critical Flicker Frequency Test, Median [4, 9]: 1.5 Hz
Change from Baseline in Critical Flicker Frequency Test, Min [4, 9]: −15 Hz
Change from Baseline in Critical Flicker Frequency Test, Max ([4]; 550 mg BID, Baseline to EOT): 11 Hz
Change from Baseline in Critical Flicker Frequency Test, Mean ([4]; 550 mg BID, Baseline to EOT): 0.9 Hz
Change from Baseline in Critical Flicker Frequency Test, Median ([4]; 550 mg BID, Baseline to EOT): 0.1 Hz
Change from Baseline in Critical Flicker Frequency Test, Min ([4]; 550 mg BID, Baseline to EOT): −14 Hz
Critical Flicker Frequency Test, Max ([4]; 550 mg BID, Day 140): 49 Hz
Critical Flicker Frequency Test, Min ([4]; 550 mg BID, Day 140): 27 Hz
Critical Flicker Frequency Test, Max ([4]; 550 mg BID, EOT): 49 Hz
Critical Flicker Frequency Test, Median ([4]; 550 mg BID, EOT): 37.8 Hz
Critical Flicker Frequency Test, Min ([4]; 550 mg BID, EOT): 25 Hz
Mean changes (±SD) in CFF results ([4]; first study, rifaximin group, baseline to end of treatment): 0.945 (±4.75)
Change from baseline in Conn score, Max [5]: 2
Change from baseline in Conn score, Mean [5]: −0.1
Change from baseline in Conn score, Median [5]: 0.0
Change from baseline in Conn score, Min [5]: −1
Number of subjects with change from baseline in Conn score of 0 ([5]; n = 139): 101
Number of subjects with change from baseline in Conn score of 1 ([5]; n = 139): 10
Number of subjects with change from baseline in Conn score of 2 ([5]; n = 139): 2
Number of subjects with change from baseline in Conn score of 3 ([5]; n = 139): 0
Number of subjects with change from baseline in Conn score of −1 ([5]; n = 139): 26
Percent of subjects with change from baseline in Conn score of 0 ([5]; n = 139): 72.7%
Percent of subjects with change from baseline in Conn score of 1 ([5]; n = 139): 7.2%
Percent of subjects with change from baseline in Conn score of 2 ([5]; n = 139): 1.4%
subjects with worsening of Conn score by 1 or 2 grades ([6]; 24/266 subjects): 9.0%
incidence of worsening asterixis grades ([6]; continuing rifaximin group, 6/70 subjects): 8.6%
subjects with 2-grade improvement in asterixis among those entering with scores of 1, 2 or 3 ([6]; last visit, 4 subjects of 67): 6.0%
subjects with 3-grade improvement in asterixis among those entering with scores of 1, 2 or 3 ([6]; last visit, 5 subjects of 67): 7.5%
subjects with 2-grade improvement in Conn score among those entering with Conn 1, 2, or 3 ([6]; last visit, 7 subjects of 84): 8.3%
subjects with 1-grade improvement in Conn score among those entering with Conn 1, 2, or 3 ([6]; last visit, 47 subjects of 84): 56.0%
incidence of worsening asterixis grades ([6]; new rifaximin group, 12/196 subjects): 6.1%
in vitro activity against species of Staphylococcus, Streptococcus, Enterococcus, and Enterobacteriaceae [7]: active
highest anticipated free plasma exposure [8]: 0.03 µM
